Laboratory results from patent US11787817B2, “Albofungin and its derivatives specifically recognize HIV-1 LTR-III G-quadruplex” (The Hong Kong University of Science and Technology, priority 2021, dated 2023).
“Also recorded” adds a separate entry of the source.

Assays:
HIV-1 LTR III G4 = test: 1D 1H-NMR titration of HIV-1 LTR III G4 with compounds; type: binding; details: for binding affinity to LTR III G4 compared with albofungin / interaction / binding with LTR III G4: NMR titration; for interaction / binding with LTR III G4: result in words
Procedure: (§1) The single DNA nucleotides were purchased from Integrated DNA Technologies (IDT). The DNA sample at 100 μM (single strands) was then re-annealed by heating to 95° C. for 15 min, followed by slow cooling to room temperature overnight in an annealing buffer of 70 mM KCl and 20 mM potassium phosphate (pH 7.0). The final NMR samples contained 0.1 mM […] in 20 mM potassium phosphate buffer (pH 7.0) and 70 mM KCl.
(§2) To verify whether or not the compounds interact with G4 DNA, we performed NMR titration experiments by running one-dimensional (1D) ^1H NMR spectra at 25° C. All compounds were dissolved in isotope-labeled d6-DMSO (from Sigma-Aldrich) at about 50 mM concentration, working as stock solutions. To avoid chemical shift changes of G4 DNA resulted from d6-DMSO addition, 10 μL d6-DMSO was added into 500 μL of 0.1 mM G4 DNA solution in the NMR buffer (20 mM potassium phosphate buffer and 70 mM KCl, pH 7.0, 10% D2O) and then a 1D ^1H-NMR spectrum was recorded as a reference. During NMR titration experiments, each compound was added into G4 DNA solution, the maximal volume of 10 μL of each compound in d6-DMSO solution was thought as a final data point.

HIV-1 U3 RNA G4 = test: 1D 1H-NMR titration of HIV-1 U3 RNA G4; type: binding; details: ratio 1:0.5, 1:1, 1:3 and 1:5
Procedure: as §1
as §2, with “point. […]” for “point.”

LTR-III G4 = test: CD spectroscopy of LTR-III G4 with compound; design: species or system HIV-1; details: increasing compound concentration ratio, 25° C., 220-320 nm
Procedure: Circular dichroism (CD) spectra were recorded on Chirascan CD spectrometer at 25° C. from 220 nm to 320 nm under liquid mode; a 1 mm path-length quartz cuvette was used in the test.
Except for NMR titration and X-ray diffraction; Circular Dichroic (CD) spectroscopy is another frequently used method for G4 studies because it is very sensitive to observing slight changes in DNA conformation. (28) Due to its sensitivity, easy manipulation of studied samples, and relatively cheap, CD spectroscopy is regarded as a crucial complementary method in G4 studies; meanwhile, LTR-III G4's structure has only been resolved using NMR elucidation in K^+ solution, a typical hybrid conformation; and different G4 conformation has distinct CD spectra. So CD test was conducted to see if 477-albo will change the conformation of LTR-III G4.

[1] = Solubility in the solvent system of the NMR titration; type: physicochemical; details: in solution / solvent system at the test concentration
Procedure: as §2

Epstein-Barr viruses = details: literature (15); cited from earlier work
[2] = test system: DNA and RNA G4s of LTR-III; details: literature; cited from earlier work
human telomeric G4s = details: literature (32); cited from earlier work
[3] = test system: human telomeric variant htel21_T18 G4; test: 1D 1H-NMR titration of human telomeric htel21_T18 G-quadruplex; type: binding; details: concentration ratio 1:5
Procedure: as §1, §2
The LTR sequence and other G-rich DNA or RNA strands can form polymorphic G4s. For example, a chair-type conformation is adopted by a human telomeric variant, htel21_T18 (d[(GGGTTA)2GGGTTTGGG]) (SEQ ID NO: 1) (25). […]

[4] = test system: LTR III G4 / hnRNP A2 interaction; test: 1D 1H-NMR titration of LTR III G4/albofungin complex with RRM1,2 domain of hnRNP A2; type: binding; details: G4:albofungin 1:3; G4:albofungin:hnRNP A2 1:3:2
Procedure: as §2
LTR G4 region is under control of two nuclear proteins: nucleolin, which upon binding increases LTR G4 stability and thus silences transcription (26); the human ribonucleoprotein (hnRNP) A2/B1, which can unfold the LTR G4 efficiently and thus enhances HIV-1 transcription (27). To sum up, G4 binding proteins perform like a switch in the determination of G4's conformation to control viral transcription modulation. Therefore, the RRM domain of human ribonucleoprotein (hnRNP A2) was expressed and purified, and the NMR titration of LTR III G4 with the RRM domain of hnRNP A2 was performed. […]

HIV-1 LTR IV G4 = test: 1D 1H-NMR titration of HIV-1 LTR IV G4; type: binding; details: ratio 1:0, 1:3 and 1:6; even at 1:6
Procedure: as §1, §2
(§3) Since not only LTR III can form noncanonical G4, LTR II and LTR IV can also form mutually exclusive G4 structures (24). […]

[5] = test system: RRM1,2 domain of hnRNP A2; test: 1H-15N HSQC titration of RRM1,2 domain of hnRNP A2 with compound; type: binding, human; details: titrated at 1:10
Procedure: The coding sequence of the RRM domain of hnRNP A2 was inserted into the expression vector pET-28a(+) (Novagen). The protein was expressed in Escherichia coli BL21(DE3) at 37° C. for 5 h. Cell lysates were subject to affinity purification with the nickel-nitrilotriacetic acid resin (Qiagen) followed by the cleavage of the hexahistidine tag with the P3C enzyme. The resulting protein was further purified on a Superdex 75 column (GE Healthcare). For the NMR studies, the samples uniformly labeled with ^15N isotopes were expressed and purified as described above, except that the cells were grown in an M9 medium containing [^15N] ammonium chloride (Cambridge Isotopes) and D-glucose.
The titration experiments were performed by recording a series of 2D ^15N-HSQC spectra on uniformly ^15N-labeled RRM domain (˜0.1 mM) in the presence of different amounts of DNA ranging from 0 to 0.5 mM at 25° C. The protein sample and the stock solutions of DNA were all prepared in 20 mM potassium phosphate buffer and 70 mM KCl, pH 7.0, 10% D2O.
All compounds were dissolved in isotope-labeled d6-DMSO (from Sigma-Aldrich) at about 50 mM concentration, working as stock solutions. […]

HIV-1 LTR II G4 = test: 1D 1H-NMR titration of HIV-1 LTR II G4; type: binding; details: ratio 1:0, 1:3 and 1:6; even at 1:6
Procedure: as §1, §2, §3

Chain of RRM1,2 domain of hnRNP A2 (P22626 21-191): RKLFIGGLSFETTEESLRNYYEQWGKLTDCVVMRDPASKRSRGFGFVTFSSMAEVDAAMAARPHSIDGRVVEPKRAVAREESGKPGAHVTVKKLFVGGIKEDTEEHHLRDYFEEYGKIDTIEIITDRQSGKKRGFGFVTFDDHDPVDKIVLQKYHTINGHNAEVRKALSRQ

## COc1c2c(c(O)c3c(=O)c4c(oc13)[C@H](O)CC[C@@H]4O)-c1c(cc3cc(C)[nH]c(=O)c3c1O)CC2 [477-albo]
HIV-1 LTR III G4
  binding affinity to LTR III G4 compared with albofungin: much weaker than albofungin
  interaction / binding with LTR III G4: specific bind with LTR-III DNA G4; also recorded: bind to LTR III G4
HIV-1 LTR III G4; concentration ratio increased to 1:3, between 13 to 14 ppm and 9.5 to 10.5 ppm
  new imino shifts indicating conformation change of LTR III G4: several strange shifts
HIV-1 LTR III G4; ratio 1:0 to 1:8
  trend of chemical shift changes of LTR III G4 imino region on titration: clear trend of chemical shifts changes
HIV-1 U3 RNA G4
  binding to U3 RNA G4 (imino region of 1D 1H-NMR spectra): not U3 RNA G4; also recorded: did not change
LTR-III G4
  conformation change of LTR-III G4 in CD spectra: noticeable conformation changes from a typical hybrid form into parallel form
[1]
  solubility: better solubility

## COc1c2c(c(O)c3c(=O)c4c(oc13)[C@H](O)CC[C@@H]4O)-c1c(cc3cc(C)n(N)c(=O)c3c1O)CC2 [492-albo]
HIV-1 LTR III G4
  binding affinity to LTR III G4 compared with albofungin: much weaker than albofungin
  interaction / binding with LTR III G4: bind to LTR III G4

## CO[C@@H]1CC[C@H](O)c2c1oc1c3c4c(c(O)c1c2=O)-c1c(cc2cc(C)[nH]c(=O)c2c1O)C[C@H]4OCO3 [505-albo]
HIV-1 LTR III G4
  binding affinity to LTR III G4 compared with albofungin: much weaker than albofungin
  interaction / binding with LTR III G4: bind to LTR III G4

## Cc1cc2cc3c(c(O)c2c(=O)n1N)-c1c2c(c4oc5c(c(=O)c4c1O)[C@@H](O)[C@@H](O)CC5)OCO[C@@H]2C3 [506-1-albo]
HIV-1 LTR III G4
  binding affinity to LTR III G4 compared with albofungin: much weaker than albofungin
  interaction / binding with LTR III G4: bind to LTR III G4

## Cc1cc2cc3c(c(O)c2c(=O)n1N)-c1c2c(c4oc5c(c(=O)c4c1O)[C@@H](O)CC[C@H]5O)OCO[C@@H]2C3 [506-2-albo]
HIV-1 LTR III G4
  binding affinity to LTR III G4 compared with albofungin: much weaker than albofungin
  interaction / binding with LTR III G4: bind to LTR III G4

## CO[C@@H]1CC[C@H](O)c2c1oc1c3c4c(c(O)c1c2=O)-c1c(cc2cc(C)n(C)c(=O)c2c1O)C[C@H]4OCO3 [519-albo]
HIV-1 LTR III G4
  binding affinity to LTR III G4 compared with albofungin: much weaker than albofungin
  interaction / binding with LTR III G4: bind to LTR III G4

## CO[C@@H]1CC[C@H](O)c2c1oc1c3c4c(c(O)c1c2=O)-c1c(cc2cc(C)n(NC(C)=O)c(=O)c2c1O)C[C@H]4OCO3 [562-albo]
HIV-1 LTR III G4
  binding affinity to LTR III G4 compared with albofungin: much weaker than albofungin
  interaction / binding with LTR III G4: bind to LTR III G4

## CN(C)c1ccc(Nc2c3ccc(NC(=O)CCN4CCCC4)cc3nc3cc(NC(=O)CCN4CCCC4)ccc23)cc1 [BRACO-19]
Epstein-Barr viruses
  activity against Epstein-Barr viruses: active against
[2]
  binding to DNA and RNA G4s of LTR-III: binds both DNA and RNA G4s of LTR-III
Human telomeric G4s
  activity against human telomeric G4s: active against

## CO[C@@H]1CC[C@H](O)c2c1oc1c3c4c(c(O)c1c2=O)-c1c(cc2c(Cl)c(C)n(N)c(=O)c2c1O)C[C@H]4OCO3 [chloroalbofungin]
HIV-1 LTR III G4
  interaction / binding with LTR III G4: poor binding affinity

## albofungin
HIV-1 LTR III G4; G4:compound concentration ratio 1:0.5, 25° C.
  chemical shift changes in the imino region of the 1D 1H-NMR spectrum of LTR III G4: significant chemical shift changes
HIV-1 LTR III G4
  interaction / binding with LTR III G4: potent interaction
[3]
  chemical shift changes of htel21_T18 1D 1H NMR spectra: no chemical shift changes
[4]
  changes in imino region of LTR III G4/albofungin complex on adding RRM1,2 domain of hnRNP A2: no changes in the profile of the imino region
HIV-1 LTR IV G4
  chemical shift changes of LTR IV G4 1D 1H NMR spectra: no significant chemical shift changes
[5]
  binding to the RRM domain of hnRNP A2: did not bind
[1]
  solubility: poor solubility
HIV-1 LTR II G4
  chemical shift changes of LTR II G4 1D 1H NMR spectra: no significant chemical shift changes
